In US20060078921A1, “Biomarkers and expression profiles for toxicology” (priority 2002, published 2006):

Experiments:
[1] = Classification of liver expression profiles with support vector machines; parameters: species or system Wistar rats; conditions: compounds not present in the initial training set, individual animals, 5 SVMs
Protocol: Adult male Wistar rats were dosed in vivo and the resulting expression profile in liver was determined. SVMs were built for the discrimination between 3 different classes of hepatotoxicants, non-toxic substances and controls. The training set consisted of 180 gene expression profiles from individual animals treated with direct acting, cholestatic, steatotic, non-toxic compounds and corresponding vehicle-dosed controls. As a first step the chips were rescaled to a median value of 0 and a standard deviation of 1. Subsequently chips were presented to a linear kernel SVM (for classifier training the SVM software package from William Stafford Noble, Department of Computer Science, Columbia University, New York was used. Procedures for the Recursive Feature Elimination (RFE), automation of the whole training cycles and further data analysis were developed in house, using the PERL language.) Single binary classifiers for each category of chips were obtained by training one group against all others (‘One-vs-All’ training method). Multi-class classification for a given test chip was then carried out by combining the outputs of all binary classifiers. A leave-one-out cross validation procedure was applied to assess the quality of the trained machines with respect to the training data. […]

GADD-153 = assay: RT-PCR of GADD-family genes in liver, GADD-153; parameters: species or system Wistar rats; conditions: rat liver, in vivo
Description: (§1) The induction of these genes correlates with the histopathological findings in a time related fashion: While PEG-3 seems to be an early marker, GADD-45 and GADD-143 appear regulated at later time points, when the tissue damage is obvious by conventional endpoints.

PEG-3 = assay: RT-PCR of GADD-family genes in liver, PEG-3; parameters: species or system Wistar rats; conditions: rat liver, in vivo
Description: as §1

GADD-45 = assay: RT-PCR of GADD-family genes in liver, GADD-45; parameters: species or system Wistar rats; conditions: rat liver, in vivo
Description: as §1

liver = conditions: man, cited from earlier work
AH-Receptor = assay: Affymetrix GeneChip liver expression, AH-R; format: in vivo, Wistar rats; conditions: rat liver, 24 H, control = 1.0
Protocol: Male Wistar rats (generally 5 animals/dose-group) were purchased from BRL (Füllingsdorf, Switzerland) and housed individually. Treated animals were dosed either orally, intraperitoneally, or intravenously with several doses of test compounds (Table 1). […] Control animals received the same volume of vehicle as placebo. Necropsy was performed 6 or 24 hours after a single administration and liver samples from the left medial lobe were placed immediately in RNALater (Ambion, Tex., USA) for RNA extraction and gene expression analysis. Samples in RNALater were stored at −20° C. until further processing.
For RNA isolation from liver tissue, a portion of tissue of approximately 100 mg was transferred to a tube containing 1.2 ml RNAzol. […] Total RNA was isolated according to the manufacturer's instruction and quantified by measuring the optical density at 280 nm. The quality of RNA was assessed with gel electrophoresis. […]
After hybridization and scanning, the expression level of each gene was calculated by subtracting the fluorescence intensity of the mismatch probes from the match signal (=average difference) using the [sequence] […] Gene expression data were further analyzed with an in-house-developed data analysis tool (RACE-A, Hoffmann-La Roche, Basel, Switzerland). […] Analyzed data were stored in a toxicogenomics database (RACE-R, Hoffmann-La Roche, Basel, Switzerland). […]

[2] = tested on: candidate marker genes (Table 4); assay: RT-PCR of candidate marker genes to differentiate toxic and non-toxic 5-HT6 receptor antagonists (FIG. 10); format: in vivo, Wistar rats; conditions: rat liver, some of the selected genes
Protocol: The regulation of the mRNA levels of several candidate genes (Table 4) was verified with quantitative RT-PCR. Specific primers for these genes have been designed in order to evaluate the expression with RT-PCR using SybrGreen assay (Table 6). For each performed RT-PCR reaction, the specificity of the assay was evaluated with dissociation curve software (Applied Biosystems), as well as by assessment of the size of the product using either gel electrophoresis or Agilent Bioanalyzer.
In a first step, the induction of the mRNA levels of 9 candidate genes (Table 5 and FIG. 10) was verified with quantitative PCR. […] As an internal control, the house-keeping gene glycernine-aldehyde-phosphate-dehydrogenase (GAPDH) was also analyzed.

EGR1 = assay: EGR-1 induction in rats (RT-PCR); format: in vivo; conditions: confirmed by RT-PCR
Protocol: Tolcapone (Tasmar) is a human hepatotoxin with no known toxicity in the rat.
§: The compounds were administered to the experimental animals three times, every 12 Hours. Animals were sacrificed 3 hours after the last administration. Shaded cells represent significant induction (threshold usually 2-fold induction).

| SMILES | induction of GADD-153 (RT-PCR) (GADD-153) | induction of PEG-3 (RT-PCR) (PEG-3) | induction of GADD-45 (RT-PCR) (GADD-45) | also measured |
| --- | --- | --- | --- | --- |
| Clc1ccccc1Cl [1,2-dichlorobenzene] | induction | induction | induction | SVM classification of compound class from liver expression profiles [1]: direct acting compound |
| CN(C)CCCN1c2ccccc2Sc2ccc(Cl)cc21 [Chlorpromazine] |  |  |  | treated patients who develop jaundice (liver): Up to 1% |
| NN [Hydrazine] | induction | induction | induction |  |
| Nc1ccc(S(=O)(=O)c2cc(Br)nc(N3CCCC3)c2)cc1 [Ro66-0074, 4-(2-Bromo-6-pyrrolidin-1-yl-pyridine-4-sulfonyl)-phenylamine] |  |  |  | AH-R Affymetrix (AH-Receptor): 1.0; expression levels of selected marker genes (RT-PCR, FIG. 10) [2]: slight induction |
| Nc1c2c(nc3ccccc13)CCCC2 [Tacrine] |  |  |  | incidence of hepatotoxicity in treated patients (liver; Alzheimer's disease patients): 40-50% |
| CC(=N)S [Thioacetamide] | induction | induction | induction |  |
| Cc1ccc(C(=O)c2cc(O)c(O)c([N+](=O)[O-])c2)cc1 [Tolcapone] |  |  |  | induction of EGR1 (EGR1; high dose 300 mg/kg): slight induction |
| O=C(O)CCCCCCNC1c2ccccc2CCc2ccccc21 [amineptine] |  |  |  | SVM classification of compound class from liver expression profiles [1]: steatotic compound |
| O=[N+]([O-])c1ccc(O)c([N+](=O)[O-])c1 [dinitrophenol, Dinitrophenol] |  |  |  | induction of EGR1 (EGR1; 10 and 30 mg/kg): slight induction |
